Measured values from BindingDB's records for doi:10.1016/0960-894X(95)00473-7 (1995).

Target: 5-hydroxytryptamine receptor 1D (Bos taurus)
Assay: Ability to bind to 5-hydroxytryptamine 1D receptor of calf substantia nigra

Structure (SMILES)	IC50
Fc1ccc2c(c1)CCC(CNCCCNC1=NCCCN1)O2 (stereo not given)	7.9 nM
c1ccc2c(c1)CCC(CNCCCNc1cnccn1)O2 (stereo not given)	10 nM
Clc1ccc(NCCCNCC2CCc3ccccc3O2)nn1 (stereo not given)	2 nM
c1ccc2c(c1)CCC(CNCCCNC1=NCCCN1)C2 (stereo not given)	40 nM
O=C1CCCN=C(NCCCNCC2CCc3ccccc3O2)N1 (stereo not given)	158 nM
c1cnc(NCCCNCC2CCc3ccccc3O2)nc1 (stereo not given)	1.6 nM
c1ccc2c(c1)CCC(CNCCCNC1=NCCCC1)O2 (stereo not given)	4 nM
c1ccc2c(c1)CCC(CNCCCCCNC1=NCCCN1)O2 (stereo not given)	10 nM
c1ccc2c(c1)CC(CNCCCNC1=NCCCN1)O2 (stereo not given)	126 nM
c1ccc2c(c1)CCC(CNCCCNc1nccs1)O2 (stereo not given)	7.9 nM
CC(C)NC(=N)NNCCCNCC1CCc2ccccc2O1 (stereo not given)	3.2 nM
c1ccc2c(c1)CCC(CNCCCNc1ccncn1)O2 (stereo not given)	10 nM
COc1cccc2c1OC(CNCCCNC1=NCCCN1)CC2 (stereo not given)	0.794 nM
COc1ccc2c(c1)OC(CNCCCNC1=NCCCN1)CC2 (stereo not given)	3.2 nM
c1ccc2c(c1)CCC(CNCCCNC1=NCCN1)O2 (stereo not given)	6.3 nM
